One assay has as its system Adrenergic α2 receptor. Kind of assay: Competitive binding, rauwolscine radioligand. The arrangement: species or system Wistar rat. How it is done:
(§1) R-55 (which comprises a 3-hydroxyphenyl moiety) and the structurally related compounds N-108 (2-{[4-(2-ethoxyphenyl)piperazin-1-yl]methyl}quinazolin-4(3H)-one) and B-39 (7-chloro-2-((5,6-dihydro-4-(2-methoxyphenyl)pyridin-1(2H)-yl)methyl)quinazolin-4(3H)-one) were assayed for competitive binding to a variety of receptors, including D4.4 type dopamine receptor, in order to assess their specificity for D4.4 dopamine receptors.
(§2) The receptors were expressed as human recombinant proteins in CHO cells, except for adrenergic α1 and α2 receptors which were expressed in Wistar rat brain and cerebral cortex cells, respectively, and melanocortin MC4 receptor which was expressed in human recombinant HEK-293 cells. Binding was determined using the following radioligands in the presence of various concentrations of the tested compound:
0.7 nM rauwolscine for adrenergic α2 receptor,
(§3) The binding assays were performed in accordance with procedures described in the literature (Greengrass & Bremner, 1979; Boyajian & Leslie, 1987; Broadhurst, 1988; Lewis, 2001; Sutton, 1995; Dearry, 1990; Zhou, 1990; Grandy, 1989; Hayes, 1992; Sokoloff, 1990; Van Tol, 1991; Van Tol 1992; Sunahara, 1991; Weinshank, 1991; Schioth, 1996; Schioth 1997; Martin & Humphrey, 1994; May, 2003; Wolf & Schutz, 1997).

The target in assay [1] is Melanocortin MC4 receptor (Homo sapiens (Human), UniProt P32245). Kind of assay: Competitive binding, NDP-α-MSH radioligand. As for the experimental part:
as §1, §2
0.02 nM NDP-α-MSH for melanocortin MC4 receptor,
as §3

The next assay addresses PARP-1 (Homo sapiens (Human), UniProt P09874). Put plainly: Universal Chemiluminescent PARP Assay. The class given is biochemical. As for the experimental part:
In addition, R-55 and its hydrochloride salt were assayed for PARP (poly(ADP-ribose)polymerase) inhibitory activity, as some quinazolinone derivatives, particularly derivatives comprising quinazolinone linked via a three-carbon moiety to substituted pyridinyl and piperazinyl moieties, have been identified as potent PARP inhibitors [U.S. Patent Application Publication No. 2004/0077667; Iwashita et al., FEBS Lett 579:1389-1393(2005); Hattori et al., J Med Chem 47:4151-4154(2004)]. PARP plays a natural role in repair of DNA damage, and inhibition of PARP may lead to undesirable side effects in any treatment of a sexual disorder.
Inhibition of PARP-1 was assayed using a Universal Chemiluminescent PARP Assay (Trevigen, Inc.).
The tested compounds were diluted from 2.1 mg of powder in 25 μl of DMSO. The tested compounds were diluted to 100 μM in 1% DMSO/99% ethanol. 3-Aminobenzamide (3-AB), a commercially available weak PARP inhibitor, was used as a positive control. The activity of PARP was quantified as relative light units (RLU). Each of the tested compounds was assayed twice.
In Assay 1, the 100 μM stock solution was diluted to 40 μM in 1×PARP buffer. The compounds were then serially diluted down to 0.4 μM. Each tested compound was
further diluted 1:4 during the assay, so the final concentrations ranged from 10 μM to 0.1 μM.
In Assay 2, the 100 μM stock was added to 1×PARP buffer to prepare samples with concentrations ranging from 40 μM to 2 μM. A 10 μM stock solution was added to 1×PARP buffer to prepare samples with concentrations of 1 μM and 0.4 μM. Each tested compound was further diluted 1:4 during the assay, so the final concentrations ranged from 10 μM to 0.1 μM.

Consider one molecule from patent publication US9353067B2, “Heterocyclic compounds and uses thereof in the treatment of sexual disorders” (ATIR Holding S.A., priority 2011, dated 2016).

Sequence of PARP-1 (P09874 whole entry): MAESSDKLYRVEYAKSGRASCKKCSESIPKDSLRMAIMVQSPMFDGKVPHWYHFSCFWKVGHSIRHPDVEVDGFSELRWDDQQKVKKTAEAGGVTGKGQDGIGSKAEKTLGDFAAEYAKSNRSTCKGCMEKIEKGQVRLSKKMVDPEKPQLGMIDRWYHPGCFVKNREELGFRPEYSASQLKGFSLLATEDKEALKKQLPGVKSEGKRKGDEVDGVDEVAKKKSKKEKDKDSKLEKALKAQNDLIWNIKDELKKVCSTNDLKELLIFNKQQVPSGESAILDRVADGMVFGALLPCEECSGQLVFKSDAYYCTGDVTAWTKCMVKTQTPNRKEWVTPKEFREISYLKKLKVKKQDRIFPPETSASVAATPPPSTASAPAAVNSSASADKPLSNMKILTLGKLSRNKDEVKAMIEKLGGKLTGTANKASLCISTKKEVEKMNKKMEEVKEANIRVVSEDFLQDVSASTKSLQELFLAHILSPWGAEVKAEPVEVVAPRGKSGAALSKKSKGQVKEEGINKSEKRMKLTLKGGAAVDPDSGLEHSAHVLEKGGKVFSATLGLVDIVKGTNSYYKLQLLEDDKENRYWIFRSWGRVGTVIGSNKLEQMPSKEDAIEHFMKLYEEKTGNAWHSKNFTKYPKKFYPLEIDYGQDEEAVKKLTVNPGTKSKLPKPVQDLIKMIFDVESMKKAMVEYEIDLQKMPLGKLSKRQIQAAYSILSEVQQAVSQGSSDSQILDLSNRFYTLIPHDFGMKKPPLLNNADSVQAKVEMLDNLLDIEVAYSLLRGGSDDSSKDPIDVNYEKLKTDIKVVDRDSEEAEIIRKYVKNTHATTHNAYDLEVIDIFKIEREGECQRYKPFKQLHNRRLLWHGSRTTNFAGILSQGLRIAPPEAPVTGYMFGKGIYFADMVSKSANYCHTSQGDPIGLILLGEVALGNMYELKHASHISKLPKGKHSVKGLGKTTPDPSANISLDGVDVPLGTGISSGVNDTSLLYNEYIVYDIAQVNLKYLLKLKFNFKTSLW
Sequence of Melanocortin MC4 receptor (P32245 whole entry): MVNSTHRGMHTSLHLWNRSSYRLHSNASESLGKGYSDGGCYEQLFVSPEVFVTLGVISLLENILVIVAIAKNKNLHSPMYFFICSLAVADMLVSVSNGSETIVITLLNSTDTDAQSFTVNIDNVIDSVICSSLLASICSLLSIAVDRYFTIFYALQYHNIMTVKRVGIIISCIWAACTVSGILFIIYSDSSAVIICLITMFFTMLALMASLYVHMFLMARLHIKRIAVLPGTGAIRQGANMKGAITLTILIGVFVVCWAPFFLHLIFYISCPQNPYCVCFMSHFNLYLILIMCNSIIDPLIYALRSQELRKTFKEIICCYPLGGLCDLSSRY

On to `O=c1[nH]c(CN2CCN(c3cccc(O)c3)CC2)nc2ccccc12` [Compound R-55, 2-((4-(3-hydroxyphenyl)piperazin-1-yl)methyl)quinazolin-4-one], for which the figures for the “Competitive binding (%) at 5 μM of tested compound” value (in the assay with Adrenergic α2 receptor; in assay [1]) were 39% and 3%, respectively. On PARP-1 (5 μM, average results from two assays), this molecule yielded an inhibition at 5 µM of 19%. On PARP-1 (10 μM, average results from two assays), this molecule registered an inhibition at 10 µM of 21%. For the same molecule, the “inhibition of PARP (in words)” value at PARP-1 (Assay 1 and Assay 2, 0.1 μM to 10 μM) is “did not exhibit any significant inhibition of PARP”.
